In patent US20230172957A1, “USE OF ASTRAGALUS MEDICINAL COMPOSITION FOR PREPARING DRUG FOR ENHANCING CANCER THERAPY” (PHYTOHEALTH CORPORATION, priority 2020, published 2023):
Several values for one entry are separate records, joined by “and”; a condition that tells them apart may be missing. Equal values may be shown once.

Experiments:
OVCAR cells = assay: Cell viability of ovarian cancer cell line measured by MTS (poisonous dose test and chemotherapeutic synergism); assay type: cell-based
Method: (1) Poisonous dose test (the chemotherapy drug dose for inhibiting the cell growth and leaving 60˜70% of growth capability is selected for subsequent test). (2) The cells are inoculated in 96-well plate and cultured for 24 hours. (3) Test drugs at different concentrations are added in, the test concentrations of the r-APS are 0, 2 and 4 mg/ml, the test concentrations of the astragalus pharmaceutical composition comprising the r-APS and the mannose (r-APS+mannose) are 0, 5 and 10 mg/ml. (4) The dose with a poisoning effect on 35-40% of individual cells is selected as chemotherapy drug dose. (5) The cell viability is tested in 48 and 72 hours respectively after addition. (6) Experiment on chemotherapeutic synergism of the r-APS and the astragalus pharmaceutical composition comprising the r-APS and the mannose (r-APS+mannose). (7) The cells are inoculated in 96-well plate and cultured for 24 hours. (8) The r-APS or the astragalus pharmaceutical composition comprising the r-APS and the mannose (r-APS+mannose) in combination with chemotherapy drug are cultured for 48 hours, the dose of the r-APS and the astragalus pharmaceutical composition comprising the r-APS and the mannose (r-APS+mannose) is three poisonous doses for test, the cell viability is measured by MTS in 48 hours.

HCT116 cells = assay: Cell viability of colorectal cancer cells measured by MTS (poisonous dose test and chemotherapeutic synergism); assay type: cell-based
Method: (1) First of all, poisonous dose test (the chemotherapy drug dose for inhibiting the cell growth and leaving 60˜70% of growth capability is selected for subsequent test) (2) The cells are inoculated in 96-well plate and cultured for 24 hours. (3) Test drugs at different concentrations are added in, the test concentrations of the r-APS are 0, 2 and 4 mg/ml, the test concentrations of the astragalus pharmaceutical composition comprising the r-APS and the mannose (r-APS+mannose) are 0, 5 and 10 mg/ml. (4) The dose with a poisoning effect on 35˜40% of individual cells is selected as chemotherapy drug dose. (5) The cell viability is tested in 48 and 72 hours respectively after addition. (6) Experiment on chemotherapeutic synergism of the r-APS and the astragalus pharmaceutical composition comprising the r-APS and the mannose (r-APS+mannose): (7) The cells are inoculated in 96-well plate and cultured for 24 hours. (8) The r-APS or the astragalus pharmaceutical composition comprising the r-APS and the mannose (r-APS+mannose) in combination with chemotherapy drug are cultured for 48 hours, the doses of the r-APS and the astragalus pharmaceutical composition comprising the r-APS and the mannose (r-APS+mannose) are selected four poisonous doses for test, and then the cell viability is measured by MTS in 48 hours.

[1] = Olaparib 0.2M, poisonous dose test
[2] = Olaparib 0.4M, poisonous dose test
[3] = Olaparib 0.6M, poisonous dose test
[4] = Olaparib 0.8M, poisonous dose test
[5] = Olaparib 1M, poisonous dose test
[6] = Olaparib alone (0 mg/ml test drug), 48 hours
[7] = Regorafenib 0.01 mM alone (0 mg/ml test drug), HCT116, 48 hours
[8] = Regorafenib 0.01 mM, HCT116, poisonous dose test

O=C(c1cc(Cc2n[nH]c(=O)c3ccccc23)ccc1F)N1CCN(C(=O)C2CC2)CC1 [Olaparib]
Cell viability (%) (OVCAR cells; [1]): 100.55%
Mean value (MEAN) of three repeats (raw reading) (OVCAR cells; [1]): 0.984
Cell viability (%) (OVCAR cells; [2]): 90.32%
Mean value (MEAN) of three repeats (raw reading) (OVCAR cells; [2]): 0.884
Cell viability (%) (OVCAR cells; [3]): 75.13%
Mean value (MEAN) of three repeats (raw reading) (OVCAR cells; [3]): 0.735
cell viability of cancer cells poisoned to (OVCAR cells; Olaparib 0.7M, poisonous dose test): 60%
Cell viability (%) (OVCAR cells; [4]): 48.72%
Mean value (MEAN) of three repeats (raw reading) (OVCAR cells; [4]): 0.477
Cell viability (%) (OVCAR cells; [5]): 18.74%
Mean value (MEAN) of three repeats (raw reading) (OVCAR cells; [5]): 0.183
Cell viability (%) (OVCAR cells; [6]): 60.189% and 61.4%
Mean value (MEAN) of three repeats (raw reading) (OVCAR cells; [6]): 0.595 and 0.605

CNC(=O)c1cc(Oc2ccc(NC(=O)Nc3ccc(Cl)c(C(F)(F)F)c3)c(F)c2)ccn1 [Regorafenib]
viability at 0.01 µM (HCT116 cells; Homo sapiens, HCT-116, Regorafenib 0.00001 mM, HCT116, poisonous dose test): 110%
viability at 0.1 µM (HCT116 cells; Homo sapiens, HCT-116, Regorafenib 0.0001 mM, HCT116, poisonous dose test): 107%
viability at 1 µM (HCT116 cells; Homo sapiens, HCT-116, Regorafenib 0.001 mM, HCT116, poisonous dose test): 94.4%
viability at 10 µM (HCT116 cells; Homo sapiens, HCT-116, Regorafenib 0.01 mM, HCT116, poisonous dose test): 60%
viability at 100 µM (HCT116 cells; Homo sapiens, HCT-116, Regorafenib 0.1 mM, HCT116, poisonous dose test): 9.2%
Mean value (MEAN) of three repeats (raw reading) (HCT116 cells; Regorafenib 0.00001 mM, HCT116, poisonous dose test): 1.103
Mean value (MEAN) of three repeats (raw reading) (HCT116 cells; Regorafenib 0.0001 mM, HCT116, poisonous dose test): 1.075
Mean value (MEAN) of three repeats (raw reading) (HCT116 cells; Regorafenib 0.001 mM, HCT116, poisonous dose test): 0.950
Cell viability (%) (HCT116 cells; [7]): 71.4% and 71.43%
Mean value (MEAN) of three repeats (raw reading) (HCT116 cells; [7]): 0.641
Cell viability (%) (HCT116 cells; [8]): 63.5%
Mean value (MEAN) of three repeats (raw reading) (HCT116 cells; [8]): 0.639
Mean value (MEAN) of three repeats (raw reading) (HCT116 cells; Regorafenib 0.1 mM, HCT116, poisonous dose test): 0.093
